Measurements reported in US8686113B2 (priority 2009, dated 2014).
Values after ≈ are worked out from the molar mass of the structure shown. Like-named read-outs stand apart in the source and are kept apart here. Each block holds one compound with its values, some of them ahead of it. Non-standard residues stand in square brackets, D forms with d. Residues, ends and D or L forms follow the SMILES beside them. No end group written: not given here. Hyp = O=C(O)[C@@H]1C[C@@H](O)CN1; Tle = CC(C)(C)[C@H](N)C(=O)O; Orn = NCCC[C@H](N)C(=O)O

Legend:
E. coli BL21 A1 = type: cell-based, Escherichia coli
Method in brief: (§1)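 Broth microdilution in 1% TSB with twofold peptide series, final 128 μg/mL to 62.5 ng/mL, against 5×10^6 bacteria/mL stock suspension added 1:1. Incubated 20 h at 37 °C, growth read by absorbance at 595 nm; MIC is the lowest concentration with no growth, determined in triplicate.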

[1] = system: Escherichia coli DSM 10233
[2] = system: Klebsiella pneumoniae DSM 681
[3] = system: Pseudomonas aeruginosa DSM 3227
[4] = mouse, serum
[5] = 25% aqueous mouse serum, 37° C., 75 μg/mL peptide
in vitro [6] = conditions: mouse, 100% mouse serum
M. luteus 10240 [7] = assay: Growth inhibition assay (microdilution MIC); type: cell-based, Micrococcus luteus
Method in brief: as §1

[8] = Stability against bacterial proteases in E. coli lysate; type: in vitro ADME; conditions: E. coli lysate with 0.5 mg/mL protein concentration
Method in brief: (§2)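 Peptide (0.15 μg/mL) incubated at 37° C. in E. coli BL21 A1 sonicated lysate in PBS pH 7.4, Bradford-adjusted to 1.5 or 0.5 mg/mL protein. Samples at 0–360 min TCA-precipitated and neutralized. Intact peptide and fragments quantified by HPLC, identified by MALDI-TOF-MS.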

[9] = system: bacterial proteases (E. coli BL21 A1 lysate); assay: as above; type: in vitro ADME; conditions: 37° C.
Method in brief: as §2

human erythrocytes = assay: Hemolysis test; type: cell-based; conditions: 1 h at 37° C., relative to Triton X-100
Description: Another possibility for investigating the cytotoxicity of the peptides and peptide derivatives is the hemolysis test. The hemolytic activity is investigated on human erythrocytes (Ryge T S & Hansen P R. Potent antibacterial lysine-peptoid hybrids identified from a positional scanning combinatorial library. Bioorganic & Medicinal Chemistry 14: 4444-51, 2006), which the Leipzig University Hospital (Germany) made available as human erythrocyte concentrate in sodium chloride-adenine-glucose-mannitol buffer (stored at 4° C.). The erythrocytes were centrifuged off at 1000 g and washed three times with ten times the volume of cold phosphate-buffered saline (PBS, pH 7.4). The erythrocytes were diluted to a final concentration of 1% in PBS. One hundred microliters of erythrocyte suspension was pipetted into each V-shaped well of a 96-well polypropylene microtiter plate (Greiner Bio-One GmbH). Then 100 μL of the peptides dissolved in PBS was added to each position, to obtain a dilution series from 600 μg/mL to 4.7 μg/mL in seven dilution steps. The microtiter plate was incubated at 37° C. for 1 h and then centrifuged at 1000*g. 100 μL was taken from the supernatant, transferred to a 96-well flat-bottomed polystyrene microtiter plate (Greiner Bio-One GmbH) and the absorption was determined at 405 nm in a Sunrise microtiter plate reader (Tecan Trading AG, Mannedorf, Switzerland), to evaluate the release of the heme group. PBS or 0.1% Triton X-100® ((p-tert-octylphenoxy) polyethoxyethanol; Fluka Chemie GmbH, Buchs, Switzerland) and melittin (SIGMA-Aldrich-Laborchemikalien, Taufkirchen, Germany) were used as negative or positive controls. All hemolysis tests were carried out twice independently as double determination and the degree of hemolysis was determined from the following equation (Park Y et al. A Leu-Lys-rich antimicrobial peptide: activity and mechanism. Biochimica et Biophysica Acta-Proteins and Proteomics 1645: 172-82, 2003): Epeptide−EPBS)/ETriton−EPBS)×100% E=extinction at 405 nm

[10] = background statement; cited from earlier work
M. luteus 10240 [11] = type: cell-based, Micrococcus luteus; conditions: alanine scan
Procedure: The purified peptides and peptide derivatives were diluted in water to a final concentration of 500 μg/mL. The test microbes were plated out from a culture in the logarithmic growth phase at a concentration of approx. 3×10^5 cells/mL in 1% tryptic soy broth and 1.2% agarose (Fluka Chemie GmbH, Buchs, Switzerland). With spacing of 3 cm, in each case 10 μL of aqueous peptide solution (500 μg/mL) or 10 μL of water and antibiotic solution as controls were added dropwise. After incubation for 20 h at 37° C., the inhibition zone diameter (IZD) was determined. All tests were performed in aerobic conditions.

E. coli 045-849 SENTRY = conditions: ¼ Muller-Hinton medium
E. coli ATCC BAA-457 = conditions: ¼ Muller-Hinton medium
K. pneumoniae ATCC 27799 = conditions: ATCC 27799
[12] = system: K. pneumoniae K6 ATCC 700603; conditions: ATCC 700603
[13] = system: P. aeruginosa 10 J. Wilson
[14] = system: S. typhimurium ATCC 14028
[15] = system: S. typhimurium s5 (J. Weiser); conditions: ¼ Muller-Hinton medium
[16] = mouse, serum, Half-life in 25% mouse serum, 25% aqueous mouse serum, 37° C., 75 μg/mL peptide
[17] = E. coli lysate with 0.5 mg/mL protein concentration; conditions: E. coli BL21 A1, 37° C., up to 360 min
E. coli D31 J. Wilson = conditions: ¼ Muller-Hinton medium
P. mirabilis ATCC 7002 = conditions: ATCC 7002
P. vulgaris ATCC 6896 = conditions: ATCC 6896
S. saprophyticus 15305 = conditions: 15305
[18] = system: S. typhimurium ATCC 700408
in vitro [19] = conditions: mouse, 25% aqueous mouse serum, Half-life in 25% mouse serum, 37° C., 75 μg/mL peptide
25% aqueous mouse serum = conditions: 37° C., up to 360 minutes
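Wherever Half-life in 25% mouse serum is given: intact peptide left at successive time points measured by reversed-phase HPLC with an acetonitrile gradient in the supernatant after precipitation of serum proteins.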

Compound: CC[C@H](C)[C@H](NC(=O)[C@@H]1C[C@@H](O)CN1C(=O)[C@H](CCCNC(=N)N)NC(=O)[C@@H]1CCCN1C(=O)[C@@H]1CCCN1C(=O)[C@H](CCCNC(=N)N)NC(=O)[C@@H]1CCCN1C(=O)[C@H](CCCNC(=N)N)NC(=O)[C@@H]1CCCN1C(=O)[C@H](CC(C)C)NC(=O)[C@H](Cc1ccc(O)cc1)NC(=O)[C@@H]1CCCN1C(=O)[C@@H]1CCCN1C(=O)[C@H](CCCCN)NC(=O)[C@H](CC(=O)O)NC(=O)[C@@H](N)C(C)C)C(=O)N[C@@H](Cc1ccc(O)cc1)C(=O)N[C@@H](CC(N)=O)C(=O)N[C@@H](CCCN)C(N)=O [compound 63] (H-VDKPPYLPRPRPPR[Hyp]IYN[Orn]-NH2)
MIC E. coli BL21 A1 (E. coli BL21 A1; BL21, 20 h): 4 µg/mL (≈ 1.74 µM)
MIC E. coli DSM 10233 [1]: 1 µg/mL (≈ 0.434 µM)
MIC K. pneumoniae DSM 681 [2]: 2 µg/mL (≈ 0.868 µM)
MIC P. aeruginosa DSM 3227 [3]: 16 to 32 µg/mL
half-life [4]: > 8 h
Half-life in 25% mouse serum [5]: >6 h
remaining at 8 h, 75 μg/mL (in vitro [6]): 60%

Compound: CC(C)C[C@H](NC(=O)[C@H](Cc1ccc(O)cc1)NC(=O)[C@@H]1CCCN1C(=O)[C@@H]1CCCN1C(=O)[C@H](CCCCN)NC(=O)[C@H](CC(=O)O)NC(=O)[C@@H](N)C(C)C)C(=O)N1CCC[C@H]1C(=O)N[C@@H](CCCNC(=N)N)C(=O)N1CCC[C@H]1C(=O)N[C@@H](CCCNC(=N)N)C(=O)N1CCC[C@H]1C(=O)N1C[C@H](O)C[C@H]1C(=O)N[C@@H](CCCNC(=N)N)C(=O)N1C[C@H](O)C[C@H]1C(=O)N[C@H](C(=O)N[C@@H](Cc1ccc(O)cc1)C(=O)N[C@@H](CC(N)=O)C(=O)N[C@@H](CCCN)C(N)=O)C(C)(C)C [compound 110] (H-VDKPPYLPRPRP[Hyp]R[Hyp][Tle]YN[Orn]-NH2)
MIC M. luteus 10240 (M. luteus 10240 [7]; 10240, 20 h): 16 µg/mL (≈ 6.89 µM)
remaining at 4 h, 0.15 μg/mL ([8]; E. coli BL21 A1 lysate (bacterial proteases), pH 7.4, read-out: percentage printed under half-life >240 min (peptide remaining)): 90%
Half-life in E. coli lysate ([9]; E. coli lysate with 0.5 mg/mL protein concentration): >4 h
half-life [4]: > 8 h
remaining at 8 h, 75 μg/mL (in vitro [6]): 70%

Compound: (p-tert-octylphenoxy) polyethoxyethanol [Triton X-100, reference compound]
Degree of hemolysis [%] at 600 μg/mL (human erythrocytes): 100%

Compound: GKPRPYSPRPTSHPRPIRV [compound 89]
Degree of hemolysis [%] at 600 μg/mL (human erythrocytes): 1.1%

Compound: GKPRPYSPRPTSHPRPIRV-OH [SEQ ID NO. 89, reference compound]
MIC M. luteus 10240 (M. luteus 10240 [7]; 10240, 20 h): 0.5 µg/mL
degradation in mammalian serum (25%) [10]: broken down within an hour

Compound: GNNRPVYIPQPRPPHPRL [compound 87]
Degree of hemolysis [%] at 600 μg/mL (human erythrocytes): 1.2%

Compound: H-VDKPPYLPRPRPPRRAYNR-NH2 [SEQ ID NO. 44]
increase in inhibition zone relative to oncocin, M. luteus (M. luteus 10240 [11]): 0.7 cm

Compound: H-VDKPPYLPRPRPPRRIYAR-NH2 [SEQ ID NO. 46]
increase in inhibition zone relative to oncocin, M. luteus (M. luteus 10240 [11]): 0.7 cm

Compound: H-VDKPPYLPRPRPPRRIYNR-NH2 [compound 18]
half-life ([8]; 37° C.): 1 h
MIC E. coli DSM 10233 [1]: 16 µg/mL
MIC K. pneumoniae DSM 681 [2]: 4 µg/mL
MIC P. aeruginosa DSM 3227 [3]: >32 µg/mL
MIC E. coli 045-849 SENTRY (E. coli 045-849 SENTRY): 4 µg/mL
MIC E. coli SEQ 102ATCC # BAA-4 57 (E. coli ATCC BAA-457): 4 µg/mL
MIC K. pneumoniae ATCC 27799 (K. pneumoniae ATCC 27799): 16 µg/mL
MIC K. pneumoniae K6 ATCC 700603 [12]: 8 µg/mL
MIC P. aeruginosa 10 J. Wilson [13]: 8 µg/mL
MIC S. typhimurium ATCC 14028 [14]: 2 µg/mL
MIC S. typhimurium s5 (J. Weiser) [15]: 4 µg/mL
Degree of hemolysis [%] at 600 μg/mL (human erythrocytes): 1.5%
half-life [16]: 1 h
half-life [4]: 0.5 h

Compound: VDKGSYLPRPTPPRPIYNRN-NH2 [SEQ ID NO. 91]
half-life in mammalian serum (25%) [10]: 2 h

not cleaved [17]: >240 min, 90%
Compound: VDKPPYLPRPRP-4tHyp-R-4tHyp-Tle-YNO-NH2

not cleaved [17]: >240 min, 90%
Compound: VDKPPYLPRPRPPRO-Tle-YNO-NH2

Compound: VDKPPYLPRPRPPRRIYNR-NH2 [SEQ ID NO. 18]
MIC E. coli BL21 A1 (E. coli BL21 A1; 1% TSB, 20 h at 37° C.): 4 µg/mL
MIC M. luteus 10240 (M. luteus 10240 [7]; 1% TSB, 20 h at 37° C.): 8 µg/mL
half-life at 0.15 μg/mL ([9]; E. coli, E. coli BL21 A1 lysate, pH 7.4, E. coli lysate with 0.5 mg/mL protein concentration): 1 h
MIC E. coli D31 J. Wilson (E. coli D31 J. Wilson): 2 µg/mL
MIC K. pneumoniae 012-3131 (K. pneumoniae 012-3131): 4 µg/mL
MIC P. aeruginosa 39324 (P. aeruginosa 39324): 4 µg/mL
MIC P. mirabilis ATCC 7002 (P. mirabilis ATCC 7002): 128 µg/mL
MIC P. vulgaris ATCC 6896 (P. vulgaris ATCC 6896): 128 µg/mL
MIC S. saprophyticus 15305 (S. saprophyticus 15305): 16 µg/mL
MIC S. typhimurium ATCC 700408 [18]: 0.25 µg/mL
half-life at 75 μg/mL (in vitro [19]): 1 h

cleaved bond (25% aqueous mouse serum): Asn18-arginine19, first_seen
Compound: VDKPPYLPRPRPPRRIYNR-OH
